Experimental data published in a melting point compilation (Tetko et al.; mined from patent text by program, amines drawn as free bases though some values may be those of a salt).

First: Cc1ccoc1C(=O)Nc1c(C)cc(N2CCCOCC2)nc1N1CC[C@@H](F)C1
Second: CCCC(=O)N1CCN(C(=O)OC2C3=C(SCCS3)C(=O)N2c2ccc3ccc(Cl)nc3n2)CC1 (stereo unspecified)
The melting point of the first is lower: 93 to 96 °C for the first, 248 °C for the second.

First: O=C(Nc1ccc(-c2cnc(-c3ccc(NC(=O)c4c(F)c(F)c(F)c(F)c4F)cc3)[nH]2)cc1)c1cccnc1
Second: CCN(CC)C(=O)CC1CCN(Cc2cnc3cc(NC(=O)c4ccc(-c5ccc(F)cc5)cc4)c(C)cc3c2)CC1
The melting point of the first is higher: 265 to 266 °C for the first, 197 °C for the second.

Compared with `CC(C)c1cc(O)cc2c1C(=O)N(CSc1ccccc1)S2(=O)=O`, `COc1cc(C(C)C)c2c(c1)S(=O)(=O)N(COP(=O)(OCc1ccccc1)OCc1ccccc1)C2=O` is lower in melting point: 127 to 130 °C for the first, 75.5 to 76.5 °C for the second.

`CC(N)=Nc1ccc(Cl)cc1Cc1ccccc1F` and `CSc1nc2ccc(Cl)cc2c(-c2ccccc2)c1N` cannot be ordered by melting point: 115 to 119 °C for the first, 115 to 117 °C for the second.

Compared with `C=CCOC1C(OC2C(COCc3ccccc3)OC(OC)C(OCc3ccccc3)C2OCc2ccccc2)OC(CO)C(O)C1OCc1ccccc1` (stereo unspecified), `O=C(O)C(Cc1ccccc1)Oc1ccc2cc(-c3csc(-c4ccccc4)n3)ccc2c1` (stereo unspecified) is higher in melting point: 119 to 120 °C for the first, 154 to 160 °C for the second.

First: CCOC(=O)CCc1cnc2c(NC(=O)c3c(Cl)cccc3Cl)cccc2c1
Second: COc1cc(C)c(C(=O)c2c(Cl)cccc2Cl)cc1Br
The melting point of the first is lower: 110 to 111 °C for the first, 159 °C for the second.

Compared with `CN(Cc1ccc(NC(=O)C2=Cc3cc(-c4ccc(-n5ccnc5)cc4)ccc3OCC2)cc1)C1CCOCC1`, `CC(C)(CCc1nnn[nH]1)c1ccc(C(=O)Nc2cn3cc(-n4ccnc4)ccc3n2)cc1` is higher in melting point: 194 to 195 °C for the first, 266 to 267 °C for the second.

Compared with `O=C(CCCC(Cc1cccc2ccccc12)C(=O)O)c1ccccc1` (stereo unspecified), `Oc1ccccc1Cc1ccc2ccccc2c1O` is lower in melting point: 134 to 136 °C for the first, 124 to 125 °C for the second.

First: Cn1nnnc1CC(=O)c1ccc(C(F)(F)F)cc1N
Second: Cc1ccc(C(F)(F)F)cc1[N+](=O)[O-]
The melting point of the first is higher: 200 to 201 °C for the first, 31 to 33 °C for the second.

First: CC(C)C#CC1(C(F)(F)F)OCC(=O)Nc2ccc(F)c(F)c21 (stereo unspecified)
Second: O=S(c1[nH]c(Br)c(Br)c1-c1ccc(Cl)cc1)C(F)(F)F (stereo unspecified)
The melting point of the first is higher: 192 to 194 °C for the first, 166 to 168 °C for the second.

First: CCCCc1ccc(C#CC(C)N(O)C(N)=O)s1 (stereo unspecified)
Second: CCCCNc1ccc2nn(CCC)c(=O)n2n1
The melting point of the first is lower: 104 to 106 °C for the first, 183 to 185 °C for the second.

Compared with `CC(OC(=O)C(F)(F)F)C1CCC2C3CC=C4CC(NC(=O)C(F)(F)F)CCC4(C)C3CCC12C` (stereo unspecified), `CC1CC2C3CCC4=CC(=O)C=CC4(C)C34OC4CC2(C)C1(O)C(=O)CO` (stereo unspecified) is higher in melting point: 140 °C for the first, 238 to 240 °C for the second.

Compared with `CCc1c(CCNC(=O)CCCCC(=O)OC)ccc(OC)c1OC`, `COC(=O)CCC(=O)c1ccc2c(c1)CC(CCCCNC(C)=O)C2` (stereo unspecified) is higher in melting point: 37 to 39 °C for the first, 94 to 95 °C for the second.

First: CC(C)(C)OC(=O)N1CCN(C(=O)OC(C)(C)C)C1=S
Second: CNNC(=O)OC(C)(C)C
The melting point of the first is higher: 117 to 118 °C for the first, 50 °C for the second.

Compared with `Cn1cc2c(n1)-c1sccc1N(C(=O)c1ccc(NC(=O)C3CCCCC3)cc1)CC2`, `CN(Cc1ccc(NC(=O)c2coc3c2C(=O)CCC3)cc1)C(=O)OC(C)(C)C` is lower in melting point: 240 to 242 °C for the first, 150 °C for the second.

Compared with `CC(C)CC(CC1CCCCC1)Cn1ccnc1` (stereo unspecified), `CCCCC[C@H]1CC[C@H](c2ccc(NC(=O)OC)cc2)CC1` is lower in melting point: 119 to 120 °C for the first, 105 to 110 °C for the second.

First: COc1ccc(C(C)(C)C)cc1NC(=O)Nc1ccc(C)cc1N
Second: COc1cc(Br)c(OC(=O)c2ccc(OC)c(F)c2)c(NC(=O)c2ccc(OC)c(F)c2)c1
The melting point of the first is lower: 165 to 166 °C for the first, 184 to 186 °C for the second.

First: CCCCCCCCCCCCCCCCCCNC(=O)OCC(CNS(=O)(=O)CCCCl)COC (stereo unspecified)
Second: CCCCCCCCCCCCCCCCCCSC(C)CC#N (stereo unspecified)
The melting point of the first is higher: 72 to 73 °C for the first, 38 °C for the second.

Compared with `CC(C)N(CCC(CCN(C)C)(C(N)=O)c1ccc(F)cc1)C(C)C` (stereo unspecified), `C[C@H](COc1ccc(F)cc1)Nc1nc(Cl)nc2c1ncn2[C@@H]1O[C@H](CO)[C@@H](O)[C@H]1O` is higher in melting point: 78 to 80 °C for the first, 172 to 173 °C for the second.

First: CCCCCCCS(=O)(=O)Oc1c(I)cc(I)cc1I
Second: CCCCc1nc2c(N)nc3ccccc3c2n1CCCCS(C)=O (stereo unspecified)
The melting point of the first is lower: 78 to 80 °C for the first, 126 to 128 °C for the second.

Compared with `O=S(=O)(CCO)Cc1ccc(CS(=O)(=O)CCO)cc1`, `COC(=O)CCCCc1ccc(C(=O)Cc2ccccc2)cc1` is lower in melting point: 210 to 212 °C for the first, 53.5 to 54 °C for the second.

First: COc1cc(OC)c2c(=O)[nH]c(-c3cc(C)c(OCCN4CCC4)c(C)c3)nc2c1
Second: COC(=O)CCC/C=C(\c1cc(C)c(OC)c(C(=O)OC)c1)c1cc(C)c2oc(=O)n(C)c2c1
The melting point of the first is higher: 204 to 205 °C for the first, 120 °C for the second.

Compared with `CCOC(=O)C(Cc1ccc(-c2ccco2)cc1)NC(=O)C1(NC(=O)OC(C)(C)C)CCCC1` (stereo unspecified), `CC(=O)NC[C@H]1CN(c2ccc(C3=CCN(C(=O)OCc4ccccc4)CC3)cc2)C(=O)O1` is higher in melting point: 107 to 112 °C for the first, 166 to 169 °C for the second.

Compared with `Clc1ccc(N2CCN(Cc3n[nH]c4c(Cl)cccc34)CC2)cc1`, `CN(C)c1ccc(/C=C/c2c(Cl)cccc2Cl)cc1` is lower in melting point: 152 to 154 °C for the first, 96 to 97 °C for the second.

First: COC(=O)c1cc(CC(C)NCC(O)c2ccc(O)c(CO)c2)ccc1O (stereo unspecified)
Second: CCCNCC(O)c1cccc(Cl)c1 (stereo unspecified)
The melting point of the first is lower: 65 to 69 °C for the first, 69.5 to 71 °C for the second.

Compared with `CCCOC(=O)Nc1ccc(OCC2CC2(Cl)Cl)c(Cl)c1` (stereo unspecified), `OCCCOc1c(Cl)cc(OCC=C(Cl)Cl)cc1Cl` is lower in melting point: 57 to 59 °C for the first, 56.6 °C for the second.

First: CC(C)[C@H](O)CP(=O)(O)CCCN
Second: COc1ccc(OCC(O)CNCCNc2c(C)c(=O)n(C)c(=O)n2C)cc1 (stereo unspecified)
The melting point of the first is higher: 187 to 189 °C for the first, 115 to 117 °C for the second.

Compared with `Cc1oc(-c2ccc3ccccc3c2)nc1COc1ccc(/C=C/C=O)cc1`, `CSc1ccc(Cn2c(C)c(CC(=O)O)c3cc(OCc4nc5ccccc5s4)ccc32)cc1` is higher in melting point: 179 to 180 °C for the first, 186 to 187 °C for the second.

Compared with `Cc1ccc2c(c1)C(C(F)(F)F)(C(F)(F)F)c1cc(C)ccc1O2`, `CN1C(=O)OC(C)(C)c2cc(-c3cc(F)cc(Br)c3)ccc21` is higher in melting point: 136 to 137 °C for the first, 157 to 158 °C for the second.

Compared with `ONc1ccc(Cl)cc1`, `Cn1c(Cl)c(C=O)c2cc(Cl)ccc21` is higher in melting point: 83 to 84 °C for the first, 165 to 167 °C for the second.

First: CN(C)CC(c1ccccc1)c1nnc2n1-c1ccc(Cl)cc1C(c1ccccc1)=NC2 (stereo unspecified)
Second: O=C1c2ccccc2C(=O)N1CC(=O)N(Cc1ccccc1)c1ccccc1
The melting point of the first is higher: 168 to 170 °C for the first, 150 °C for the second.

First: COC(=O)C1=C(C)NC(C=O)=C(C(=O)OC)C1c1cccc2c(=O)c(C)c(-c3ccccc3)oc12 (stereo unspecified)
Second: O=C(O)C1c2ccccc2CCc2cc(Br)ccc21 (stereo unspecified)
The melting point of the first is higher: 216 °C for the first, 129 to 131 °C for the second.

First: CCNC(=O)c1ccccc1Nc1nc(Nc2ccc3c(c2)CCN(CCOC)CC3)ncc1Cl
Second: CCCn1c(=O)cc(OCC)n(Cc2ccc(-c3ccccc3-c3nnn[nH]3)cc2)c1=O
The melting point of the first is higher: 150 to 184 °C for the first, 108 to 119 °C for the second.

Compared with `COc1ccc(-n2nc(C)cc2-c2ccccc2)cc1`, `Cn1c2ccc(Cl)cc2c2c(CC(=O)O)nn(-c3ccccc3)c(=O)c21` is higher in melting point: 110 °C for the first, 206 to 208 °C for the second.

Compared with `O=C1c2cccc(NC(=S)Nc3cc[nH]n3)c2C2CCCCN12` (stereo unspecified), `CCOc1ccccc1C1=NN(C(=O)c2cccnc2)CC1` is lower in melting point: 208 °C for the first, 155 to 157 °C for the second.

Compared with `OC1CSC(Oc2cccc(-c3cccnc3Cl)c2)C(O)C1O` (stereo unspecified), `CC1OC(n2cnc3c(Nc4ccccc4)ccnc32)C(O)C1O` (stereo unspecified) is higher in melting point: 130 °C for the first, 219 °C for the second.

First: Cc1ccc(S(=O)(=O)Nc2ccc(CCCC(=O)O)nc2)cc1
Second: CCCC(=O)c1cnc2c(OCCCN(C)CCCc3ccccc3)cccc2c1Nc1ccccc1C
The melting point of the first is higher: 154 to 155 °C for the first, 79 to 81 °C for the second.

Compared with `N#Cc1ccc(COc2ccc3c(c2)CCNC3=O)cc1`, `N#Cc1ccc2c(c1)C(=O)CC2` is lower in melting point: 158 to 160 °C for the first, 109 °C for the second.

First: CCOC(=O)c1ccc(CCNc2ncnc(CC)c2Cl)cc1
Second: COCCOc1cccc(-n2cc(-c3ccc(O)cc3)c3c(N)ncnc32)c1
The melting point of the first is higher: 134 to 135 °C for the first, 103 to 112 °C for the second.

First: CN(C)c1cnc([N+](=O)[O-])cn1
Second: CCCc1c(CO)ncn1S(=O)(=O)N(C)C
The melting point of the first is higher: 221 to 223 °C for the first, 86 to 88 °C for the second.

First: COc1cc2c(Cl)c(C#N)cnc2cc1N1CCN(C)CC1
Second: CC(=O)c1ccc2c(c1)oc(=O)n2CCCN1CCC(c2noc3cc(F)ccc23)CC1
The melting point of the first is higher: 177 to 179 °C for the first, 152 to 154 °C for the second.

First: CCc1nn2c(N)c3c(nc2c1S(=O)(=O)c1ccccc1)CCC3
Second: Cc1nccn1-c1cccc(OS(N)(=O)=O)c1
The melting point of the first is higher: over 230 °C for the first, 197 to 200 °C for the second.

First: COc1cc(C(=O)N2Cc3ccc(C(=O)NCc4cccnc4)n3Cc3ccccc32)ccc1-c1ccccc1C
Second: O=C(NC1CCCc2ccccc21)c1ccc2n1Cc1ccccc1N(C(=O)CSc1ccc(Br)cc1)C2 (stereo unspecified)
The melting point of the first is higher: 165 to 167 °C for the first, 163 to 165 °C for the second.

First: O=C(N[C@H]1C=C[C@@H](C(=O)O)C1)c1ccccc1
Second: Oc1ccccc1C=Cc1nc2ccccc2s1
The melting point of the first is lower: 150 to 151 °C for the first, 235 to 236 °C for the second.

First: COC(=O)Cc1ccc2c(c1)C(=O)c1sccc1CO2
Second: COc1cc(Cc2ccc3nc(N)nc(N)c3c2)cc(OC)c1
The melting point of the first is lower: 80 to 81 °C for the first, 230 to 232 °C for the second.

Compared with `NS(=O)(=O)c1c(S)cccc1C(F)(F)F`, `NC(Cc1noc2ccccc12)=NO` is higher in melting point: 155 °C for the first, 160 to 162 °C for the second.

Compared with `CN(C)C(=O)N1CCC2(CC1)CN=C(c1cc3cccc(N(C)S(=O)(=O)c4cccs4)c3[nH]1)S2`, `CC(C)COc1ccc2sc(-c3ccccn3)nc(=O)c2c1` is lower in melting point: 245 °C for the first, 136 °C for the second.

First: Cc1sc(N)c(C#N)c1Cl
Second: COC(=O)c1sc2cccc(Cl)c2c1Br
The melting point of the first is higher: 158 °C for the first, 120 to 122 °C for the second.

First: COc1cc(C(C)C)c2c(c1)S(=O)(=O)N(COc1cc(C(F)(F)F)nn1C)C2=O
Second: C=CCOc1ccc2c(c1)CCC(=O)N2
The melting point of the first is lower: 107 to 108 °C for the first, 123 to 125 °C for the second.

First: Cc1cc(=O)[nH]c(=O)n1C1OC(CO)C(O)C1O (stereo unspecified)
Second: CC(=O)OCCn1cc(C(N)=O)c([N+](=O)[O-])n1
The melting point of the first is higher: 175 to 177 °C for the first, 139 to 141 °C for the second.

In the case of `O=C(Nc1cccc2c(N=P(c3ccccc3)(c3ccccc3)c3ccccc3)ccnc12)c1c(Cl)cccc1Cl`, the melting point is reported as 276 to 281 °C.
